Assays:
[1] = tested on: A-172 Glioblastoma cell line; test: Cell viability assay (ATP quantitation); format: cell-based; conditions: 50 nM, 5 days, vs non-targeting control
Method in brief: (§1)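 Seeded at 0.7-2×10^3 cells/well, cells were treated one day later with oligonucleotides (typically 50 nM, Lipofectamine 3000) and/or MEK inhibitor. Total luminescence was read 3 days (synergy experiments) or 5 days (ASO alone) after transfection.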

AV4 melanoma cell line = test: Cell viability assay (ATP quantitation); format: cell-based; conditions: 50 nM, 5 days, vs non-targeting control
Method in brief: as §1

[2] = tested on: H1299 lung cancer cell line; test: Cell viability assay (ATP quantitation); format: cell-based; conditions: 50 nM, 5 days, vs non-targeting control
Method in brief: as §1

[3] = tested on: H2228 lung cancer cell line; test: Cell viability assay (ATP quantitation); format: cell-based; conditions: 50 nM, 5 days, vs non-targeting control
Method in brief: as §1

[4] = tested on: H82 lung cancer cell line; test: Cell viability assay (ATP quantitation); format: cell-based; conditions: 50 nM, 5 days, vs non-targeting control
Method in brief: as §1

[5] = tested on: H929 multiple myeloma cell line; test: Cell viability assay (ATP quantitation); format: cell-based; conditions: 50 nM, 5 days, vs non-targeting control
Method in brief: as §1

[6] = tested on: HCT116 colon carcinoma cell line; test: Cell viability assay (ATP quantitation); format: cell-based; conditions: 50 nM, 5 days, vs non-targeting control
Method in brief: as §1

[7] = tested on: Hs940.T melanoma cell line; test: Cell viability assay (ATP quantitation); format: cell-based; conditions: 50 nM, 5 days, vs non-targeting control
Method in brief: as §1

[8] = tested on: LS174 colon carcinoma cell line; test: Cell viability assay (ATP quantitation); format: cell-based; conditions: 50 nM, 5 days, vs non-targeting control
Method in brief: as §1

[9] = tested on: MaMel30 melanoma cell line; test: Cell viability assay (ATP quantitation); format: cell-based; conditions: 50 nM, 5 days, vs non-targeting control
Method in brief: as §1

[10] = tested on: SW1271 lung cancer cell line; test: Cell viability assay (ATP quantitation); format: cell-based; conditions: 50 nM, 5 days, vs non-targeting control
Method in brief: as §1

[11] = tested on: SW480 colon carcinoma cell line; test: Cell viability assay (ATP quantitation); format: cell-based; conditions: 50 nM, 5 days, vs non-targeting control
Method in brief: as §1

[12] = tested on: Sk-Mel-5 melanoma cell line; test: Cell viability assay (ATP quantitation); format: cell-based; conditions: 50 nM, 5 days, vs non-targeting control
Method in brief: as §1

[13] = tested on: Sk-N-AS Neuroblastoma cell line; test: Cell viability assay (ATP quantitation); format: cell-based; conditions: 50 nM, 5 days, vs non-targeting control
Method in brief: as §1

[14] = tested on: T98G Glioblastoma cell line; test: Cell viability assay (ATP quantitation); format: cell-based; conditions: 50 nM, 5 days, vs non-targeting control
Method in brief: as §1

[15] = tested on: U138-MG Glioblastoma cell line; test: Cell viability assay (ATP quantitation); format: cell-based; conditions: 50 nM, 5 days, vs non-targeting control
Method in brief: as §1

[16] = tested on: U20S osteosarcoma cell line; test: Cell viability assay (ATP quantitation); format: cell-based; conditions: 50 nM, 5 days, vs non-targeting control
Method in brief: as §1

[17] = tested on: U87-MG Glioblastoma cell line; test: Cell viability assay (ATP quantitation); format: cell-based; conditions: 50 nM, 5 days, vs non-targeting control
Method in brief: as §1

[18] = tested on: WM3060 melanoma cell line; test: Cell viability assay (ATP quantitation); format: cell-based; conditions: 50 nM, 5 days, vs non-targeting control
Method in brief: as §1

[19] = tested on: hepatocellular carcinoma cell line HepG2; test: Cell viability assay (ATP quantitation); format: cell-based; conditions: 50 nM, 120 hrs, Lipofectamine3000 2 ul/ml, vs non-targeting control ASO
[20] = tested on: sarcoma cell line SK-LMS-1; test: Cell viability assay (ATP quantitation); format: cell-based; conditions: SK-LMS-1 sarcoma; 50 nM, 120 hrs; Lipofectamine3000 2 ul/ml; vs non-targeting control ASO
Caspase 3+7 = test: Caspase Glo 3/7 assay in D04 cell line; format: cell-based, human; conditions: ASO 50 nM, 1 day, vs control ASOs
Protocol: Dependent on cell doubling time, 2-3×10^^3 cells were seeded in 96 well plates. 1 day after seeding cells were incubated in media with 50 nM oligonucleotide concentration and transfection reagent. 1 day after transfection Total luminescence was measured on the SynergyHT plate reader (BioTek) using Gen5 software. Experiments were performed in quadruplicates.

D04 cells = test: Repetition of drug treatment in surviving D04 cells (drug resistance test); format: cell-based, human; conditions: TRASH-ASO 50 nM or MEKi 15 nM (or 20 nM), recovery in drug free media, five days (120 hrs)
Protocol: Dependent on cell doubling time, 0.7-2×10^^3 cells were seeded in 96 well plates. 1 day after seeding cells were incubated in media with oligonucleotide concentration and/or MEKi and transfection reagent. 3 (synergy experiments) or 5 (solely ASO) days after transfection Total luminescence was measured on the SynergyHT plate reader (BioTek) using Gen5 software.
Rescuing cells that survived initial TRASH-ASO (SEQ ID NO:15) and MEKi (trametinib) treatment and providing the rescued cells with a phase of regrowth in drug free media, was followed by repetition of the preceding drug treatment. […] Incubation time was 120 hrs, n=3. (FIG. 5d).

Sequence: GACTGGAGATAATTAA (gapmer, pattern not given here) [SEQ ID NO: 15, GapmeR ASO targeting AC004540.4 (TRASH), exon region of both isoforms; used for in vitro experiments]
- cell viability decrease [1]: significant cell viability decrease
- cell viability decrease (AV4 melanoma cell line): significant cell viability decrease
- cell viability decrease [2]: significant cell viability decrease
- cell viability decrease [3]: significant cell viability decrease
- cell viability decrease [4]: significant cell viability decrease
- cell viability decrease [5]: significant cell viability decrease
- cell viability decrease [6]: significant cell viability decrease
- cell viability decrease [7]: significant cell viability decrease
- cell viability decrease [8]: significant cell viability decrease
- cell viability decrease [9]: significant cell viability decrease
- cell viability decrease [10]: significant cell viability decrease
- cell viability decrease [11]: significant cell viability decrease
- cell viability decrease [12]: significant cell viability decrease
- cell viability decrease [13]: significant cell viability decrease
- cell viability decrease [14]: significant cell viability decrease
- cell viability decrease [15]: significant cell viability decrease
- cell viability decrease [16]: significant cell viability decrease
- cell viability decrease [17]: significant cell viability decrease
- cell viability decrease [18]: significant cell viability decrease
- cell viability decrease [19]: significant cell viability decrease
- cell viability decrease [20]: significant cell viability decrease
- Caspase-3 &-7 activity increase (Caspase 3+7): 3.0 fold
- cell-growth reduction on repetition of the preceding drug treatment in surviving cells (D04 cells; n=3, listed as SEQ ID NO:15): increased vulnerability
- cell-growth reduction on repetition of the preceding drug treatment in surviving cells (D04 cells; n=3, listed as TRASH-ASO): significantly increased (p=0.004) cell-growth reduction

Source: patent publication US20250197864A1, “LNCRNA TRANSCRIPTS IN MELANOMAGENESIS” (The Regents of the University of California, priority 2021, published 2025)
